In patent US8076320B2, “Crystalline forms of a pharmaceutical compound” (Cephalon, Inc., priority 2004, dated 2011):

Tests used:
Assay type in all cases: physicochemical
[1] = Suspension of excess solid Compound I in solvent on a rotarmix, solid form determined by powder X-ray diffraction
Method: In the following examples are used excess of solid Compound I, i.e. compared to the solvent the amounts of solid Compound I is such that not all the solid material comes into solution. The amounts used varied between 25-50 mg solid Compound I and 2-5 ml solvent. In the present context by “solid Compound I” is meant amorphous Compound I or any of the crystalline forms of Compound I as indicated below. • (i) Excess of amorphous Compound I was added to methanol and the resulting suspension was stored on a rotarmix for 4 days at room temperature. […] After filtration the supernatant was left for evaporation of the solvent. […] Conclusion: […]

[2] = as above; settings: 4 days, room temperature; for solid form after storage as suspension in acetonitrile (ACN): excess solid in ACN; for solid form after storage as suspension in methanol: excess solid in methanol
[3] = Light exposure of the solid compound in a Heraeus Suntest CPS+; settings: solid compound exposed to light for 14 h at 650W
Method: Experiments were carried out in a Heraeus Suntest CPS+ for the crystalline forms alpha, beta and gamma where the solid compound was exposed to light for 14 h at 650W.

[4] = listed as crystalline alpha form of Compound I
[5] = listed as crystalline beta form of Compound I
[6] = listed as crystalline gamma form of Compound I

## CCSCc1ccc2c(c1)c1c3c(c4c5cc(CSCC)ccc5n5c4c1n2[C@H]1C[C@](O)(C(=O)OC)[C@]5(C)O1)CNC3=O
[1]; excess solid in methanol, rotarmix, 4 days, room temperature, powder X-ray diffraction
  solid form after storage as suspension in methanol: the major part of the solid was the gamma form
[1]; methanol suspension after 4 days, filtration, supernatant left for evaporation of the solvent
  solid form obtained on evaporation of the filtered supernatant: the alpha form

## CCSCc1ccc2c(c1)c1c3c(c4c5cc(CSCC)ccc5n5c4c1n2[C@H]1C[C@](O)(C(=O)OC)[C@]5(C)O1)CNC3=O [alpha]
[2]; [4]
  solid form after storage as suspension in acetonitrile (ACN): the gamma form
  solid form after storage as suspension in methanol: still the alpha form

## CCSCc1ccc2c(c1)c1c3c(c4c5cc(CSCC)ccc5n5c4c1n2[C@H]1C[C@](O)(C(=O)OC)[C@]5(C)O1)CNC3=O [amorphous substance]
[3]
  degradation after light treatment: ~60%
[2]; listed as amorphous Compound I
  solid form after storage as suspension in acetonitrile (ACN): the gamma form
  solid form after storage as suspension in methanol: the alpha form

## CCSCc1ccc2c(c1)c1c3c(c4c5cc(CSCC)ccc5n5c4c1n2[C@H]1C[C@](O)(C(=O)OC)[C@]5(C)O1)CNC3=O [beta]
[2]; [5]
  solid form after storage as suspension in acetonitrile (ACN): the gamma form
  solid form after storage as suspension in methanol: the alpha form

## CCSCc1ccc2c(c1)c1c3c(c4c5cc(CSCC)ccc5n5c4c1n2[C@H]1C[C@](O)(C(=O)OC)[C@]5(C)O1)CNC3=O [gamma]
[2]; [6]
  solid form after storage as suspension in acetonitrile (ACN): still the gamma form
  solid form after storage as suspension in methanol: still the gamma form
